Consider three compounds from US9845482B2, “Compositions and methods for enhancing bioenergetic status in female germ cells” (The General Hospital Corporation, priority 2011, dated 2017).

Molecules are shown by their SMILES.

In assay [1] the test system is Mouse OSCs. The assay is described as follows: NAD+ and NADH levels in mouse OSCs treated with mitochondrial enhancers. In kind it is cell-based. The settings on record: 24 hours. On the procedure: FIG. 35 depicts levels of NAD+ (A) and NADH (B) in OSCs treated with mitochondrial enhancers. Mouse OSCs maintained in culture (Zou et al., Nat Cell Biol 2009 11:631-636) were exposed to the indicated test compounds for 24 hours and then assessed for levels of NAD+ and NADH. Female infertility due to chemotherapy, aging and premature ovarian failure (POF) is due in part to a decline in mitochondrial function in oocytes and OSCs. Accordingly, OSCs from mice were used to screen for small compounds that enhance mitochondrial function (“bioenergetic status”) in female germline cells. Assays for enhancing mitochondrial function included mtDNA content, ATP, NAD+/NADH, mitochondrial mass, mitochondrial membrane potential, and gene expression of known mitochondrial mass regulators and electron transport chain components. All the compounds were dissolved in DMSO. For screening purposes the cells were treated with the vehicle (0.001% DMSO) or with 25 or 50 μM of each compound (except for berberine, which the concentrations used for the screen were 5 μM and 25 μM) for 24 hours. For validation of the top 6 hits, cells were treated with vehicle (0.001% DMSO) or either 5 or 25 μM of each compound for 24 hours. For the gene expression profile, the cells were treated with the concentration that was considered to work better in the previous validation assays.

Assay [2] deals with OSCs from mice. The experiment in a line: Screen of mouse OSCs for compounds that enhance mitochondrial function (mtDNA, ATP, mitochondrial mass, membrane potential, gene expression). In kind it is cell-based. The settings on record: 24 hours; for activity above the baseline (DMSO alone), scored as a positive result: 25 or 50 μM (berberine 5 μM and 25 μM). From the text: Female infertility due to chemotherapy, aging and premature ovarian failure (POF) is due in part to a decline in mitochondrial function in oocytes and OSCs. Accordingly, OSCs from mice were used to screen for small compounds that enhance mitochondrial function (“bioenergetic status”) in female germline cells. Assays for enhancing mitochondrial function included mtDNA content, ATP, NAD+/NADH, mitochondrial mass, mitochondrial membrane potential, and gene expression of known mitochondrial mass regulators and electron transport chain components.
All the compounds were dissolved in DMSO. For screening purposes the cells were treated with the vehicle (0.001% DMSO) or with 25 or 50 μM of each compound (except for berberine, which the concentrations used for the screen were 5 μM and 25 μM) for 24 hours. For validation of the top 6 hits, cells were treated with vehicle (0.001% DMSO) or either 5 or 25 μM of each compound for 24 hours. For the gene expression profile, the cells were treated with the concentration that was considered to work better in the previous validation assays.
Mitochondrial membrane potential was measured with a fluorescent probe, Tetramethylrhodamine methyl ester (TMRM) (Sigma) as described before (Rolo A. P. Biochim. Biophys. Acta 2003 1637: 127-132). Briefly the cells were loaded with 6.6 μM TMRM in HBSS buffer at 37° C. for 15 minutes in the dark. The supernatant was then aspirated, and the cells returned to the original volume with KHH. TMRM is a membrane-permeable cationic fluorophore that accumulates electrophoretically in mitochondria in proportion to their mitochondrial membrane potential (Ehrenberg B. V. et al. Biophys. J. 1988 53:785-794). Cell suspensions (200 μl containing 10^5 cells) were loaded into 96-well plates and fluorescence measured using excitation and emission wavelengths of 485 and 590 nm, respectively. Mitochondrial membrane potential was estimated, taking into account the complete depolarization caused by carbonyl cyanide p-(trifluoromethoxy)phenylhydrazone (FCCP).
For mtDNA analysis, total DNA was extracted with DNeasy blood and tissue kit (QIAGEN). mtDNA was amplified using primers specific for the mitochondrial cytochrome c oxidase subunit 2 (COX2) gene and normalized to genomic DNA by amplification of the ribosomal protein s18 (rps18) nuclear gene. Primers were designed using the IDT software (IDT).
ATP content was measured using a luciferase-based assay with a commercial kit according to the manufacturer's instructions (Roche Applied Science, Penzberg, Germany) and normalized to protein content in each sample.
Mitochondrial mass was evaluated using the fluorescent probe N-nonyl acridine orange (NAO), briefly the cells were incubated in culture media containing 10 nM of NAO for 30 minutes at 37° C. in the dark. The cells were then trypsinized and resuspended in culture media without NAO. The NAO fluorescence intensity was then determined by flow cytometry on the FACSCALIBUR® (BD Biosciences, San Jose, Calif., USA) using the 488 nm laser.
For gene expression analysis, RNA from skeletal muscle tissue and C2C12 cells were extracted with RNeasy mini kit (QIAGEN) according to the instructions and quantified using the NanoDrop 1000 spectrophotometer (Thermo Scientific). cDNA was synthesized with the iSCRIP cDNA synthesis kit (BioRad) using 200 ng of RNA. Quantitative RT-PCR reactions were performed using 1 μM of primers and LIGHTCYCLER® 480 SYBR® Green Master (Roche Applied Science, Penzberg, Germany) on an LIGHTCYCLER® 480 detection system (Roche Applied Science, Penzberg, Germany). Calculations were performed by a comparative method (2-ΔΔCT) using actin as an internal control. Primers were designed using the IDT software (IDT).

For the compound `O=c1cc(-c2ccc(O)c(O)c2)oc2cc(O)cc(O)c12` [luteolin, 2-(3,4-Dihydroxyphenyl)-5,7-dihydroxy-4-chromenone], the “NAD^+ levels” value in assay [1] is given as “raise”. Besides, in assay [2], the mitochondrial parameters entry is “increase mitochondrial parameters in a beneficial way” and the “activity above the baseline (DMSO alone), scored as a positive result” value is listed as “activity above the baseline”.
In the same order, the values of `O=c1cc(-c2ccc(O)cc2)oc2cc(O)cc(O)c12` [apigenin, 5,7-Dihydroxy-2-(4-hydroxyphenyl)-4H-1-benzopyran-4-one] are “raise”, “increase mitochondrial parameters in a beneficial way” and “activity above the baseline”.
In the case of `O=C(Nc1ccccc1-c1cn2c(CN3CCNCC3)csc2n1)c1cnc2ccccc2n1` [SRT-1720, N-[2[3-(piperazin-1-ylmethyl)imidazo[2,1-b][1,3]thiazol-6-yl]phenyl]quinoxaline-2-carboxamide], in assay [2], the mitochondrial parameters entry is “increase mitochondrial parameters in a beneficial way” and the “activity above the baseline (DMSO alone), scored as a positive result” value is “activity above the baseline”.
